Converted amounts (≈) assume the structure as drawn.
Legend:
solubility in water = assay type: physicochemical
[1] = tested on: Proteus mirabilis NCTC 8559; experiment: bactericidal activity by serial dilution in Brain Heart Infusion Broth (MIC and MMC), P.m.; assay type: cell-based; details: 24 hours; for MIC: NCTC8559, 37° C., read-out: Minimal Inhibitory Concentration (MIC); for MBC: NCTC8559, sub-culture on Tryptone Soy Agar, 37° C., read-out: Minimal Microbiocidal Concentration (MMC)
Method: (§1) (A) The bactericidal activity of the compounds of the invention has been determined on various microorganisms, as hereinafter described.
(§2) Serial dilutions of the test and reference compounds are prepared in Brain Heart Infusion Broth (Oxoid CM225) in two-fold steps from 1000 μg/ml down to 0.5 μg/ml.
(§3) The test organisms are cultured on Tryptone Soy Agar (TSA, Oxoid CM131) and checked for viability and purity. Standardized inocula are then ppepared by inoculating slopes of TSA and incubating at 37° C. for 24 hours. The resultant bacterial growth is then removed by the addition of sterile physiological saline and shaking with glass beads. The suspensions of organisms are then standardized to give 50% transmission at […] on an SP600 Spectrophotometer. Calibration curves show this to yield approximately 10^8 colony forming units per ml.
(§4) 0.1 ml aliquots of these suspensions are then used to inoculate each of the prepared serial dilutions of the compounds in Brain Heart Infusion Broth.
(§5) The sets of dilutions are incubated at 37° C. for 24 hours and then inspected for the presence or absence of growth as shown by turbidity of the medium. The lowest concentration showing no growth of the test organism is recorded as the Minimal Inhibitory Concentration (MIC) of the compound for that organism.
(§6) Each of the tubes showing no growth are then sub-cultured onto plates of Tryptone Soy Agar and incubated at 37° C. for 24 hours. The plates are then inspected for the presence or absence of growth at the inoculation points. […] MIC and MMC are expressed in μg/ml.
(§7) The results are presented in the following table, in comparison with those for two reference compounds, nitrofuroxazide and pipemidic acid. The abreviations used in the table have the following meanings: […]

[2] = tested on: Streptococcus pyogenes NCTC 8198; experiment: bactericidal activity by serial dilution in Brain Heart Infusion Broth (MIC and MMC), S.p.; assay type: cell-based; details: 24 hours; for MIC: NCTC8198, 37° C., read-out: Minimal Inhibitory Concentration (MIC); for MBC: NCTC8198, sub-culture on Tryptone Soy Agar, 37° C., read-out: Minimal Microbiocidal Concentration (MMC)
Method: as §1, §2, §3, §4, §5, §6
(§8) The results are presented in the following table, in comparison with those for two reference compounds, nitrofuroxazide and pipemidic acid. The abreviations used in the table have the following meanings:
S.p. Streptococcus pyogenes

[3] = tested on: Pseudomonas aeruginosa ATCC 9027; experiment: bactericidal activity by serial dilution in Brain Heart Infusion Broth (MIC and MMC), P.a.; assay type: cell-based; details: 24 hours; for MIC: ATCC9027, 37° C., read-out: Minimal Inhibitory Concentration (MIC); for MBC: ATCC9027, sub-culture on Tryptone Soy Agar, 37° C., read-out: Minimal Microbiocidal Concentration (MMC)
Method: as §1, §2, §3, §4, §5, §6, §8
P.a. Pseudomonas aeruginosa

[4] = tested on: Shigella boydii NCTC 9328; experiment: bactericidal activity by serial dilution in Brain Heart Infusion Broth (MIC and MMC), S.b.; assay type: cell-based; details: 24 hours; for MIC: NCTC9328, 37° C., read-out: Minimal Inhibitory Concentration (MIC); for MBC: NCTC9328, sub-culture on Tryptone Soy Agar, 37° C., read-out: Minimal Microbiocidal Concentration (MMC)
Method: as §1, §2, §3, §4, §5, §6, §8
S.b. Shigella boydii NCTC 9328

[5] = solubility in dimethylsulfoxide; assay type: physicochemical
[6] = tested on: Escherichia coli NCTC 8196; experiment: bactericidal activity by serial dilution in Brain Heart Infusion Broth (MIC and MMC), E.c.; assay type: cell-based; details: 24 hours; for MIC: NCTC8196, 37° C., read-out: Minimal Inhibitory Concentration (MIC); for MBC: NCTC8196, sub-culture on Tryptone Soy Agar, 37° C., read-out: Minimal Microbiocidal Concentration (MMC)
Method: as §1, §2, §3, §4, §5, §6, §7

[7] = tested on: Staphylococcus aureus ATCC 6538; experiment: bactericidal activity by serial dilution in Brain Heart Infusion Broth (MIC and MMC), S.a.; assay type: cell-based; details: 24 hours; for MIC: ATCC6538, 37° C., read-out: Minimal Inhibitory Concentration (MIC); for MBC: ATCC6538, sub-culture on Tryptone Soy Agar, 37° C., read-out: Minimal Microbiocidal Concentration (MMC)
Method: as §1, §2, §3, §4, §5, §6, §8
S.a. Staphylococcus aureus

[8] = tested on: Salmonella enteritidis NCTC 6676; experiment: bactericidal activity by serial dilution in Brain Heart Infusion Broth (MIC and MMC), S.e.; assay type: cell-based; details: Salmonella enterica, 37° C., 24 hours; for MIC: read-out: Minimal Inhibitory Concentration (MIC); for MBC: sub-culture on Tryptone Soy Agar, read-out: Minimal Microbiocidal Concentration (MMC)
Method: as §1, §2, §3, §4, §5, §6, §8
S.e. Salmonella enteritidis

[9] = tested on: Vibrio Cholerae, Vibrio parahemolyticus, Vibrio alginolyticus, Aeromonas hydrophila Sobria and Salmonella; experiment: bacteriostatic activity, preceding experiment (comparison within the series); assay type: cell-based; details: compared with the compounds of examples 1 to 5
Method: (B) The bacteriostatic activity of the compounds of the invention has also been searched against microorganisms more particularly related with gastro-enteritis.
This experiment was conducted in Mueller-Hinton gelose with tested compounds dissolved in dimethylsulfoxide (control dimethylsulfoxide was provided) at increasing concentrations from 0.01 to 100 μg. The strains used were Vibrio Cholerae (3 strains respectively from Europe, Africa and Conth-East-Asia), Vibrio parahemolyticus, Vibrio alginolyticus, Aeromonas hydrophila Sobria and Salmonella. Minimum inhibitory concentration was found for the 7 compounds of the invention, between 0.5 and 1 μg for the Salmonella strain and between 0.1 and 0.5 μg for the other strains, which denotes a strong bacteriostatic activity.

SMILES	solubility in water (solubility in water)	MIC [1] [µg/mL]	MBC [1] [µg/mL]	MIC [2] [µg/mL]	MBC [2] [µg/mL]	MIC [3] [µg/mL]	MBC [3] [µg/mL]	MIC [4] [µg/mL]	MBC [4] [µg/mL]	solubility in dimethylsulfoxide [5]	MIC [6] [µg/mL]	MBC [6] [µg/mL]	MIC [7] [µg/mL]	MBC [7] [µg/mL]	MIC [8] [µg/mL]	MBC [8] [µg/mL]	relative activity in preceding experiment [9]
O=C(O)c1cn(Cc2ccc([N+](=O)[O-])o2)c2c(F)cc(F)cc2c1=O [Example 5]	insoluble	16 (≈ 45.7 µM)	32 (≈ 91.4 µM)	8 (≈ 22.8 µM)	32 (≈ 91.4 µM)	2 (≈ 5.71 µM)	2 (≈ 5.71 µM)	32 (≈ 91.4 µM)	32 (≈ 91.4 µM)	soluble	64 (≈ 183 µM)	64 (≈ 183 µM)	16 (≈ 45.7 µM)	64 (≈ 183 µM)	125 (≈ 357 µM)	125 (≈ 357 µM)	–
O=C(O)c1cn(CC2CC2)c2c(F)cc(F)cc2c1=O [Example 4]	insoluble	1 (≈ 3.58 µM)	2 (≈ 7.16 µM)	4 (≈ 14.3 µM)	4 (≈ 14.3 µM)	8 (≈ 28.6 µM)	16 (≈ 57.3 µM)	32 (≈ 115 µM)	32 (≈ 115 µM)	soluble	64 (≈ 229 µM)	64 (≈ 229 µM)	64 (≈ 229 µM)	64 (≈ 229 µM)	2 (≈ 7.16 µM)	4 (≈ 14.3 µM)	–
O=C(O)c1cn(CCF)c2c(F)cc(F)cc2c1=O [Example 2]	insoluble	4 (≈ 14.7 µM)	8 (≈ 29.5 µM)	32 (≈ 118 µM)	32 (≈ 118 µM)	8 (≈ 29.5 µM)	8 (≈ 29.5 µM)	8 (≈ 29.5 µM)	16 (≈ 59 µM)	insoluble	32 (≈ 118 µM)	32 (≈ 118 µM)	4 (≈ 14.7 µM)	8 (≈ 29.5 µM)	4 (≈ 14.7 µM)	8 (≈ 29.5 µM)	–
O=C(O)c1cn(Cc2c(Cl)cccc2Cl)c2c(F)cc(F)cc2c1=O [Example 7]	insoluble	2 (≈ 5.21 µM)	4 (≈ 10.4 µM)	32 (≈ 83.3 µM)	64 (≈ 167 µM)	8 (≈ 20.8 µM)	8 (≈ 20.8 µM)	16 (≈ 41.6 µM)	32 (≈ 83.3 µM)	insoluble	1 (≈ 2.6 µM)	2 (≈ 5.21 µM)	8 (≈ 20.8 µM)	8 (≈ 20.8 µM)	2 (≈ 5.21 µM)	4 (≈ 10.4 µM)	less active
CCn1cc(C(=O)O)c(=O)c2cnc(N3CCNCC3)nc21 [Pip., Pipemidic acid, reference compound]	–	4 (≈ 13.2 µM)	8 (≈ 26.4 µM)	4 (≈ 13.2 µM)	125 (≈ 412 µM)	1 (≈ 3.3 µM)	16 (≈ 52.7 µM)	4 (≈ 13.2 µM)	4 (≈ 13.2 µM)	–	4 (≈ 13.2 µM)	4 (≈ 13.2 µM)	2 (≈ 6.59 µM)	250 (≈ 824 µM)	4 (≈ 13.2 µM)	8 (≈ 26.4 µM)	–
CCn1cc(C(=O)O)c(=O)c2cc(F)cc(F)c21 [Example 1, 1,4-dihydro-3-carboxy-6,8-difluoro-1-ethyl-4-oxo-quinoline]	insoluble	1 (≈ 3.95 µM)	2 (≈ 7.9 µM)	16 (≈ 63.2 µM)	32 (≈ 126 µM)	32 (≈ 126 µM)	64 (≈ 253 µM)	1 (≈ 3.95 µM)	1 (≈ 3.95 µM)	soluble	8 (≈ 31.6 µM)	8 (≈ 31.6 µM)	32 (≈ 126 µM)	32 (≈ 126 µM)	2 (≈ 7.9 µM)	4 (≈ 15.8 µM)	–
O=C(O)c1cn(COCCO)c2c(F)cc(F)cc2c1=O [Example 3]	insoluble	32 (≈ 107 µM)	32 (≈ 107 µM)	2 (≈ 6.68 µM)	4 (≈ 13.4 µM)	8 (≈ 26.7 µM)	16 (≈ 53.5 µM)	8 (≈ 26.7 µM)	8 (≈ 26.7 µM)	soluble	4 (≈ 13.4 µM)	8 (≈ 26.7 µM)	4 (≈ 13.4 µM)	8 (≈ 26.7 µM)	32 (≈ 107 µM)	32 (≈ 107 µM)	–
O=C(O)c1cn(CC2CCCCC2)c2c(F)cc(F)cc2c1=O [Example 6]	insoluble	8 (≈ 24.9 µM)	8 (≈ 24.9 µM)	16 (≈ 49.8 µM)	16 (≈ 49.8 µM)	4 (≈ 12.4 µM)	8 (≈ 24.9 µM)	8 (≈ 24.9 µM)	8 (≈ 24.9 µM)	insoluble	64 (≈ 199 µM)	64 (≈ 199 µM)	8 (≈ 24.9 µM)	16 (≈ 49.8 µM)	4 (≈ 12.4 µM)	4 (≈ 12.4 µM)	less active
O=C(N/N=C/c1ccc([N+](=O)[O-])o1)c1ccc(O)cc1 [Nif., Nifuroxazide, reference compound]	–	500 (≈ 1820 µM)	500 (≈ 1820 µM)	1 (≈ 3.63 µM)	1 (≈ 3.63 µM)	500 (≈ 1820 µM)	500 (≈ 1820 µM)	8 (≈ 29.1 µM)	8 (≈ 29.1 µM)	–	4 (≈ 14.5 µM)	4 (≈ 14.5 µM)	8 (≈ 29.1 µM)	8 (≈ 29.1 µM)	500 (≈ 1820 µM)	500 (≈ 1820 µM)	–
